Data published in patent US20250059187A1, “COVALENTLY BINDING INHIBITORS OF G12S, G12D AND/OR G12E MUTANTS OF K-RAS GTPASE” (The Regents of the University of California, priority 2021, published 2025).

How the values were obtained:
[1] = target: T1, wild type K-Ras (Homo sapiens, UniProt P01116); test: Covalent modification of recombinant wild-type K-Ras by whole-protein mass spectrometry; assay type: binding; settings: 24-h incubation, 100 μM compound, 23° C., pH 7.5
T1 construct: human K-Ras (wildtype, aa 1-169); 6xHis tag + TEV cleavage site (N, cleaved yes); made in house; host or cells: E. coli BL21(DE3)

[2] = target: T1, wild type K-Ras; test: Covalent modification of test protein after incubation with compound; assay type: binding; settings: 24-h incubation with 100 μM compound at 23° C. at pH 7.5
[3] = tested on: Ba/F3:K-Ras(G12S) cells; test: Phospho-ERK assay in Ba/F3:K-Ras(G12S) cells; assay type: cell-based, murine; settings: 1 h treatment
Protocol: Ba/F3 parental cells were pelleted and resuspend in IL-3 supplemented growth medium (RPMI 1640, 10% heat-inactivated FBS, 10 ng/mL mouse IL-3 medium) to 1×10^7/mL. Ba/F3 K-Ras(G12S) transductant cells were pelleted and resuspended in IL-3 free growth medium (RPMI 1640, 10% heat-inactivated FBS) to 1×10^7/mL. 25 μL cells were added to each well of a 96-well plate (2.5×10^5 cells/well), followed by 5 μL 6× compound solutions (6% DMSO). The mixture was incubated at 37° C. for 1 h. Cell lysis and subsequent high-throughput phospho-ERK assay was performed using Cisbio Advanced phospho-ERK (Thr202/Tyr204) cellular kit (PerkinElmer 64AERPEG) following the manufacturer's instructions.

[4] = tested on: cell lines with confirmed KRAS p.G12S mutations; test: Immunoblot in four cell lines with confirmed KRAS p.G12S mutations; assay type: cell-based; settings: 10 μM, 2 h
Protocol: (§1) Cells were passed for at least two generations after cryorecovery before they were used for assays. All cell lines were tested mycoplasma negative using MycoAlert™ Mycoplasma Detection Kit (Lonza). When indicated, cells were treated with drugs at 40-60% confluency at a final DMSO concentration of 1%. At the end of treatment period, cells were placed on ice. Unless otherwise indicated, adherent cells were washed once with ice-cold PBS (1 mL), scraped with a spatula, and pelleted by centrifugation (500×g, 5 min). Suspension cells were pelleted by centrifugation (500×g, 5 min), washed with 1 mL ice-cold PBS, and pelleted again. Cells were lysed in RIPA buffer supplemented with protease and phosphatase inhibitors (cOmplete and phosSTOP, Roche) on ice for 10 min. For RBD pulldown experiments, cells were lysed in Co-IP Lysis Buffer in lieu of RIPA buffer. Lysates were clarified by high-speed centrifugation (19,000×g, 10 min). Concentrations of lysates were determined with protein BCA assay (Thermo Fisher) and adjusted to 2 mg/mL with additional RIPA buffer (or Co-IP Lysis Buffer). […]
(§2) Unless otherwise noted, SDS-PAGE was run with Novex 16% Bis-Tris gel (Invitrogen) in MES running buffer (Invitrogen) at 200 V for 60 min following the manufacturer's instructions. […] The membrane was washed three times with TBST (5 min each wash) and imaged on a Li-COR Odyssey fluorescence imager.

[5] = tested on: SW1990 cells (homozygous KRAS p.G12D); test: Immunoblot in SW1990 cells (G12S ligand); assay type: cell-based; settings: 10 μM, 2 h
Protocol: as §1, §2

[6] = tested on: H358 cells (heterozygous KRAS p.G12C); test: Immunoblot in H358 cells; assay type: cell-based; settings: 10 μM, 2 h
Protocol: as §1, §2

[7] = tested on: A375 cells (wild-type KRAS); test: Immunoblot in A375 cells; assay type: cell-based; settings: 10 μM, 2 h
Protocol: as §1, §2

[8] = tested on: parental Ba/F3 cells (with IL-3); test: Cell viability assay (CellTiter-Glo), parental Ba/F3 cells; assay type: cell-based, murine; settings: Mus musculus, BaF3; +10 ng/mL IL-3, 72 h; read-out: IC50, growth of parental Ba/F3 cells
Protocol: (§3) Cells were seeded into 96-well white flat bottom plates (1,000 cells/well) (Corning) and incubated overnight. […] Cell viability was assessed using a commercial CellTiter-Glo (CTG) luminescence-based assay (Promega). Briefly, the 96-well plates were equilibrated to room temperature before the addition of diluted CTG reagent […] (1:4 CTG reagent:PBS). Plates were placed on an orbital shaker for 30 min before recording luminescence using a Spark 20M (Tecan) plate reader.

[9] = tested on: Ba/F3:K-Ras(G12S) cells (without IL-3); test: Cell viability assay (CellTiter-Glo), Ba/F3:K-Ras(G12S) cells; assay type: cell-based, murine
Protocol: as §3

T1 sequence (P01116 1-169 isoform P01116-2): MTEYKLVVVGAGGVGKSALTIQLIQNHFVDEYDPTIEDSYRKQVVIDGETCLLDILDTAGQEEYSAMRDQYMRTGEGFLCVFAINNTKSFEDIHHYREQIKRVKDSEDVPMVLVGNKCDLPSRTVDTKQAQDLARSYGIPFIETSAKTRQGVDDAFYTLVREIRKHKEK

## O=C1O[C@H]2CN(c3nc(OCC45CCCN4CCC5)nc4c(F)c(-c5cccc6cccc(Cl)c56)ncc34)CC[C@@H]12 [5′]
[1]
  % covalent modification of wild type K-Ras: 0%
[2]
  % covalent modification of wild type K-Ras: 0%
[3]
  phospho-ERK levels: dose-dependent reduction of phospho-ERK levels
[4]
  phospho-ERK level and K-Ras gel mobility: reduction of phospho-ERK level and gel mobility shift of the K-Ras protein
[5]
  signaling in SW1990 cells: did not perturb the signaling
[6]
  phospho-Erk in H358 cells: weak inhibition of phospho-Erk
[7]
  signaling in A375 cells: did not perturb the signaling
[8]
  IC50: 12.5 µM
[9]
  selectivity, Ba/F3:K-Ras(G12S) over parental Ba/F3 cells: five-fold
[9]; Mus musculus, BaF3, no IL-3, 72 h, read-out: IC50, growth of K-Ras(G12S)-transduced Ba/F3 cells
  IC50: 2.4 µM
